Reference: patent US20230372301A1, “TREATMENTS WITH NIROGACESTAT” (SpringWorks Therapeutics, Inc., priority 2022, published 2023)
Counter-ions that a name gives are not always drawn. Like-named read-outs stand apart in the source and are kept apart here.

How the values were obtained:
[1] = Pharmacokinetics of 150 mg nirogacestat dihydrobromide twice daily at steady state exposure; assay type: in vivo, human; settings: 150 mg (free base equivalent dose) twice daily, oral
Protocol: The pharmacokinetic parameters for oral doses of 150 mg (free base equivalent dose) nirogacestat dihydrobromide twice daily at steady state exposure is provided in Table 2E below.

[2] = Pharmacokinetics of single oral doses of nirogacestat dihydrobromide; assay type: in vivo, human; settings: for AUC(0-inf) / AUC(0-t) / Cmax / half-life / Tmax / Vd/F: human, in vivo, po
[3] = human, in vivo, steady state exposure
[4] = COHORT 1: 150 mg (1 × 150 mg), Period 2
[5] = COHORT 1: 150 mg (3 × 50 mg), Period 1

Question: What does the source list for `CCC[C@H](N[C@H]1CCc2cc(F)cc(F)c2C1)C(=O)Nc1cn(C(C)(C)CNCC(C)(C)C)cn1` [nirogacestat dihydrobromide]?
Answer: Time to steady-state [1]: Approximately 8 days; AUC [1, 3]: 6430 ng·h/mL; Cmax [1, 3]: 1250 ng/mL; CL/F, Geometric Mean [2, 4]: 49.7 L/h; CL/F, Median [2, 4]: 48.4 L/h; CL/F, Geometric Mean [2, 5]: 49.2 L/h; CL/F, Median [2, 5]: 57.0 L/h; CL/F, Geometric Mean ([2]; COHORT 2: 100 mg, Period 1): 56.1 L/h; CL/F, Median ([2]; COHORT 2: 100 mg, Period 1): 58.4 L/h; CL/F, Geometric Mean ([2]; COHORT 3: 50 mg, Period 1): 87.6 L/h; CL/F, Median ([2]; COHORT 3: 50 mg, Period 1): 74.9 L/h; AUC(0-inf) ([2]; 50 mg, COHORT 3: 50 mg, Period 1, read-out: AUCinf, Geometric Mean): 571 ng·h/mL; AUC(0-inf) ([2]; 50 mg, COHORT 3: 50 mg, Period 1, read-out: AUCinf, Median): 674 ng·h/mL; AUC(0-t) ([2]; 50 mg, COHORT 3: 50 mg, Period 1, read-out: AUClast, Geometric Mean): 545 ng·h/mL; AUC(0-t) ([2]; 50 mg, COHORT 3: 50 mg, Period 1, read-out: AUClast, Median): 653 ng·h/mL; Cmax ([2]; 50 mg, COHORT 3: 50 mg, Period 1, read-out: Cmax, Geometric Mean): 183 ng/mL; Cmax ([2]; 50 mg, COHORT 3: 50 mg, Period 1, read-out: Cmax, Median): 209 ng/mL; half-life ([2]; 50 mg, COHORT 3: 50 mg, Period 1, read-out: Half-life, Geometric Mean (converted)): 19.3 h; half-life ([2]; 50 mg, COHORT 3: 50 mg, Period 1, read-out: Half-life, Median (converted)): 23.3 h; Tmax ([2]; 50 mg, COHORT 3: 50 mg, Period 1, read-out: Tmax, Geometric Mean): 0.829 h; Tmax ([2]; 50 mg, COHORT 3: 50 mg, Period 1, read-out: Tmax, Median): 1 h; Vd/F ([2]; 50 mg, COHORT 3: 50 mg, Period 1, read-out: Vz/F, Geometric Mean): 2440 L; Vd/F ([2]; 50 mg, COHORT 3: 50 mg, Period 1, read-out: Vz/F, Median): 2730 L; AUC(0-inf) ([2]; 100 mg, COHORT 2: 100 mg, Period 1, read-out: AUCinf, Geometric Mean): 1780 ng·h/mL; AUC(0-inf) ([2]; 100 mg, COHORT 2: 100 mg, Period 1, read-out: AUCinf, Median): 1710 ng·h/mL; AUC(0-t) ([2]; 100 mg, COHORT 2: 100 mg, Period 1, read-out: AUClast, Geometric Mean): 1720 ng·h/mL; AUC(0-t) ([2]; 100 mg, COHORT 2: 100 mg, Period 1, read-out: AUClast, Median): 1660 ng·h/mL; Cmax ([2]; 100 mg, COHORT 2: 100 mg, Period 1, read-out: Cmax, Geometric Mean): 435 ng/mL; Cmax ([2]; 100 mg, COHORT 2: 100 mg, Period 1, read-out: Cmax, Median): 433 ng/mL; half-life ([2]; 100 mg, COHORT 2: 100 mg, Period 1, read-out: Half-life, Geometric Mean (converted)): 25.2 h; half-life ([2]; 100 mg, COHORT 2: 100 mg, Period 1, read-out: Half-life, Median (converted)): 24.4 h; Tmax ([2]; 100 mg, COHORT 2: 100 mg, Period 1, read-out: Tmax, Geometric Mean): 1.19 h; Tmax ([2]; 100 mg, COHORT 2: 100 mg, Period 1, read-out: Tmax, Median): 1.28 h; Vd/F ([2]; 100 mg, COHORT 2: 100 mg, Period 1, read-out: Vz/F, Geometric Mean): 2040 L; Vd/F ([2]; 100 mg, COHORT 2: 100 mg, Period 1, read-out: Vz/F, Median): 2040 L; AUC(0-inf) ([2]; 150 mg, COHORT 1: 150 mg (1 × 150 mg), Period 2, read-out: AUCinf, Geometric Mean): 3020 ng·h/mL; AUC(0-inf) ([2]; 150 mg, COHORT 1: 150 mg (1 × 150 mg), Period 2, read-out: AUCinf, Median): 3100 ng·h/mL; AUC(0-t) ([2]; 150 mg, COHORT 1: 150 mg (1 × 150 mg), Period 2, read-out: AUClast, Geometric Mean): 2930 ng·h/mL; AUC(0-t) ([2]; 150 mg, COHORT 1: 150 mg (1 × 150 mg), Period 2, read-out: AUClast, Median): 3040 ng·h/mL; Cmax ([2]; 150 mg, COHORT 1: 150 mg (1 × 150 mg), Period 2, read-out: Cmax, Geometric Mean): 686 ng/mL; Cmax ([2]; 150 mg, COHORT 1: 150 mg (1 × 150 mg), Period 2, read-out: Cmax, Median): 662 ng/mL; half-life ([2]; 150 mg, COHORT 1: 150 mg (1 × 150 mg), Period 2, read-out: Half-life, Geometric Mean (converted)): 24.7 h; half-life ([2]; 150 mg, COHORT 1: 150 mg (1 × 150 mg), Period 2, read-out: Half-life, Median (converted)): 26.3 h; Tmax ([2]; 150 mg, COHORT 1: 150 mg (1 × 150 mg), Period 2, read-out: Tmax, Geometric Mean): 1.2 h; Tmax ([2]; 150 mg, COHORT 1: 150 mg (1 × 150 mg), Period 2, read-out: Tmax, Median): 1.5 h; Vd/F ([2]; 150 mg, COHORT 1: 150 mg (1 × 150 mg), Period 2, read-out: Vz/F, Geometric Mean): 1770 L; Vd/F ([2]; 150 mg, COHORT 1: 150 mg (1 × 150 mg), Period 2, read-out: Vz/F, Median): 1720 L; AUC(0-inf) ([2]; 150 mg, COHORT 1: 150 mg (3 × 50 mg), Period 1, read-out: AUCinf, Geometric Mean): 3050 ng·h/mL; AUC(0-inf) ([2]; 150 mg, COHORT 1: 150 mg (3 × 50 mg), Period 1, read-out: AUCinf, Median): 2640 ng·h/mL; AUC(0-t) ([2]; 150 mg, COHORT 1: 150 mg (3 × 50 mg), Period 1, read-out: AUClast, Geometric Mean): 2960 ng·h/mL; AUC(0-t) ([2]; 150 mg, COHORT 1: 150 mg (3 × 50 mg), Period 1, read-out: AUClast, Median): 2580 ng·h/mL; Cmax ([2]; 150 mg, COHORT 1: 150 mg (3 × 50 mg), Period 1, read-out: Cmax, Geometric Mean): 733 ng/mL; Cmax ([2]; 150 mg, COHORT 1: 150 mg (3 × 50 mg), Period 1, read-out: Cmax, Median): 697 ng/mL; half-life ([2]; 150 mg, COHORT 1: 150 mg (3 × 50 mg), Period 1, read-out: Half-life, Geometric Mean (converted)): 25 h; half-life ([2]; 150 mg, COHORT 1: 150 mg (3 × 50 mg), Period 1, read-out: Half-life, Median (converted)): 26.3 h; Tmax ([2]; 150 mg, COHORT 1: 150 mg (3 × 50 mg), Period 1, read-out: Tmax, Geometric Mean): 1.34 h; Tmax ([2]; 150 mg, COHORT 1: 150 mg (3 × 50 mg), Period 1, read-out: Tmax, Median): 1.49 h; Vd/F ([2]; 150 mg, COHORT 1: 150 mg (3 × 50 mg), Period 1, read-out: Vz/F, Geometric Mean): 1770 L; Vd/F ([2]; 150 mg, COHORT 1: 150 mg (3 × 50 mg), Period 1, read-out: Vz/F, Median): 1830 L
